# From patent publication US20260327221A1, “INHIBITORS OF CYCLIC GMP-AMP SYNTHASE AND USES THEREOF” (Ventus Therapeutics U.S., Inc., priority 2023, published 2026)
# pIC50: −log10 of the molar value.
# Molecular target: hcGAS (Homo sapiens, UniProt Q8N884)
# Test: hcGAS LCMS assay (direct measurement of cGAMP production by LC/MS)
# Assay type: biochemical
# Conditions: 4 h incubation with enzyme and substrates; cGAMP production by LC/MS; class symbols; read-out: hcGAS LCMS IC50
# How it was run: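 Enzyme, substrates (ATP, GTP) and compound incubated 4 h, then quenched with acetonitrile/water containing 0.15 uM 13C/15N-labeled cGAMP internal standard. cGAMP formed quantified directly by LC/MS on HILIC amide column; IC50 values reported in potency bins.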
# Sequence of hcGAS (Q8N884 whole entry): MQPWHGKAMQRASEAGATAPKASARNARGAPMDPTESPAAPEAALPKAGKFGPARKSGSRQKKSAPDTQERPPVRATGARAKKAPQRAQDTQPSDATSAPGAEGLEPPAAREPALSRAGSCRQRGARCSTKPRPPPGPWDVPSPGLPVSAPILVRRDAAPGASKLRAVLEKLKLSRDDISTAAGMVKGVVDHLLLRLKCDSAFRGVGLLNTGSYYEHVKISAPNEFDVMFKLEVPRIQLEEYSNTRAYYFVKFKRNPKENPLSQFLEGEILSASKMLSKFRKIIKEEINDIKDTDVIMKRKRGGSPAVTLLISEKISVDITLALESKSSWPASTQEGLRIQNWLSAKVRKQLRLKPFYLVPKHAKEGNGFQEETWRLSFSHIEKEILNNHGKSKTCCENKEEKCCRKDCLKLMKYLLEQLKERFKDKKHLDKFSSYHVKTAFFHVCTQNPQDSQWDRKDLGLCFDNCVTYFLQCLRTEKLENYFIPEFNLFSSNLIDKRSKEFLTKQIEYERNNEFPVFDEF
row,SMILES,pIC50
1,COc1cccc(OC)c1-c1cc(C(=O)Nc2nnc(-n3nccc3N)s2)oc(=O)c1OCC(O)CN1CCSCC1 (stereo not drawn) [91A*/91B*],9.00 to 9.30
2,"COC[C@@H](CO)Oc1c(-c2c(OC)cccc2OC)cc(C(=O)Nc2nnc(-n3nccc3N)s2)oc1=O [Compound 62B*, (R)—N-(5-(5-amino-1H-pyrazol-1-yl)-1,3,4-thiadiazol-2-yl)-4-(2,6-dimethoxyphenyl)-3-((1-hydroxy-3-methoxypropan-2-yl)oxy)-2-oxo-2H-pyran-6-carboxamide]",9.00 to 9.30
3,"COc1cccc(OC)c1-c1cc(C(=O)Nc2nnc(-n3nccc3N)s2)oc(=O)c1OC(CO)CN1CCOCC1 (racemic) [Rac-87, N-(5-(5-amino-1H-pyrazol-1-yl)-1,3,4-thiadiazol-2-yl)-4-(2,6-dimethoxyphenyl)-3-((1-hydroxy-3-morpholinopropan-2-yl)oxy)-2-oxo-2H-pyran-6-carboxamide]",8.30 to 9.00
